Source: ChEMBL document CHEMBL5046251, “Discovery of a Series of Pyrimidine Carboxamides as Inhibitors of Vanin-1” (J Med Chem, 2022)
Calls of active or inactive are those of the source. No cut-off for these calls is given here.

What was measured:
[1] = biological target: T1, Biotinidase (Homo sapiens, UniProt P43251); experiment: Inhibition of N-terminal FLAG/His6-tagged human biotinidase expressed in COS cells using biotinyl-7-amino-4-trifluoromethylcoumarin as substrate preincubated for 10 mins followed by substrate addition and measured after 90 mins; assay type: cell-based
T1 sequence (P43251 whole entry): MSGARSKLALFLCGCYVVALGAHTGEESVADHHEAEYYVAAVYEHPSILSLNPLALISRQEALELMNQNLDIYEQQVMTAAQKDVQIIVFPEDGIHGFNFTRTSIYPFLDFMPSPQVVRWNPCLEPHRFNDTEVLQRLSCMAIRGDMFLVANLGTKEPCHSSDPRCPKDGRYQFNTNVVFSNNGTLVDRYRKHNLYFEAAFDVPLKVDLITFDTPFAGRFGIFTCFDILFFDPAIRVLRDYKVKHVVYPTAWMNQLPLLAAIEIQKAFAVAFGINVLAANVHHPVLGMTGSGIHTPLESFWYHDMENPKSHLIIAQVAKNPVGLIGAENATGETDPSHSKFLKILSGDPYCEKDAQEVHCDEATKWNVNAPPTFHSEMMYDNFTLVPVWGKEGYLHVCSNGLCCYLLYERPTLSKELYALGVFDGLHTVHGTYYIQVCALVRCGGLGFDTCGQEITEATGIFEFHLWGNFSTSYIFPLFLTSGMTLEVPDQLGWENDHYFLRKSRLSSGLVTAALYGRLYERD

[2] = biological target: T2, Pantetheinase (Homo sapiens, UniProt O95497); experiment: Inhibition of recombinant N-terminal FLAG/His6-tagged human vanin-1 expressed in CHO cells using Pantetheine-7-amino-4-trifluoromethykournarin as substrate preincubated for 30 mins followed by substrate addition and measured after 60 mins
T2 sequence (O95497 whole entry): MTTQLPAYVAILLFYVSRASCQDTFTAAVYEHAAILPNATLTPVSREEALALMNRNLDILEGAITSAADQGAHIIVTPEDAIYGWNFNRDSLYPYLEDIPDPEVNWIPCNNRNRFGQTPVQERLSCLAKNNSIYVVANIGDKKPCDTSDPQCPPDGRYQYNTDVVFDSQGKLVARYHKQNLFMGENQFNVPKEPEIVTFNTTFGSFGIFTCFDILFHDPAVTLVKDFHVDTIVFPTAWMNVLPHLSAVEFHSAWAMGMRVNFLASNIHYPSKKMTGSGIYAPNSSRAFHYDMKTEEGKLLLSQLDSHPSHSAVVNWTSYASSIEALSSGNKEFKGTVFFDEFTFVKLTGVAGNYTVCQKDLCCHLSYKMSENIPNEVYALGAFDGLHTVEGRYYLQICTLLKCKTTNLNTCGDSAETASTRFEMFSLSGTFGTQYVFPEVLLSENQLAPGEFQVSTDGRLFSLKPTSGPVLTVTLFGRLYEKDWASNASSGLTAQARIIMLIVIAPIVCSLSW

[3] = Lipophilicity, log D of the compound in Octanol/buffer by shake-flask method
[4] = Intrinsic clearance in human liver microsomes; assay type: ADME, Microsome
[5] = Apparent permeability across apical to basolateral side in RRCK cells; settings: dog, MDCK
[6] = biological target: T3, Pantetheinase (Homo sapiens) (UniProt O95497); experiment: Binding affinity to recombinant N-terminal FLAG/His6-tagged human vanin-1 expressed in CHO cells assessed as binding constant (Koff) by surface plasmon resonance analysis
T3 sequence (whole entry): T2 sequence (O95497 whole entry)

[7] = biological target: T2, Pantetheinase; experiment: Binding affinity to recombinant N-terminal FLAG/His6-tagged human vanin-1 expressed in CHO cells assessed as dissociation constant by surface plasmon resonance analysis
[8] = biological target: T3, Pantetheinase (Homo sapiens); experiment: Binding affinity to recombinant N-terminal FLAG/His6-tagged human vanin-1 expressed in CHO cells assessed as dissociative half life by surface plasmon resonance analysis
[9] = biological target: T3, Pantetheinase (Homo sapiens); experiment: Binding affinity to recombinant N-terminal FLAG/His6-tagged human vanin-1 expressed in CHO cells assessed as binding constant (Kon) by surface plasmon resonance analysis
[10] = biological target: T2, Pantetheinase; experiment: Inhibition of recombinant N-terminal FLAG/His6-tagged human vanin-1 expressed in CHO cells at 10 uM by 1H NMR analysis; assay type: cell-based
[11] = test system: Mus musculus; experiment: Anti-colitis activity against DSS-induced BALB/c mouse model assessed as reduction in disease activity index at 100 mg/kg, po administered for 5 to 14 days; assay type: functional, organism-based; settings: time 5-14 day
[12] = test system: Mus musculus; experiment: Anti-colitis activity against DSS-induced colitis BALB/c mouse model assessed as effect on colon length at 100 mg/kg, po measured after 14 days; assay type: functional, organism-based; settings: time 14.0 day
[13] = test system: Mus musculus; experiment: Anti-colitis activity against DSS-induced BALB/c mouse model assessed as increase in body weight at 100 mg/kg, po administered for 5 to 14 days; assay type: functional, organism-based; settings: time 5-14 day
[14] = Intrinsic clearance in rat hepatocytes assessed per million cells; assay type: ADME, cell-based, Hepatocyte
[15] = biological target: T4, Pantetheinase (Mus musculus, UniProt Q9Z0K8); experiment: Inhibition of mouse vanin-1
T4 sequence (Q9Z0K8 whole entry): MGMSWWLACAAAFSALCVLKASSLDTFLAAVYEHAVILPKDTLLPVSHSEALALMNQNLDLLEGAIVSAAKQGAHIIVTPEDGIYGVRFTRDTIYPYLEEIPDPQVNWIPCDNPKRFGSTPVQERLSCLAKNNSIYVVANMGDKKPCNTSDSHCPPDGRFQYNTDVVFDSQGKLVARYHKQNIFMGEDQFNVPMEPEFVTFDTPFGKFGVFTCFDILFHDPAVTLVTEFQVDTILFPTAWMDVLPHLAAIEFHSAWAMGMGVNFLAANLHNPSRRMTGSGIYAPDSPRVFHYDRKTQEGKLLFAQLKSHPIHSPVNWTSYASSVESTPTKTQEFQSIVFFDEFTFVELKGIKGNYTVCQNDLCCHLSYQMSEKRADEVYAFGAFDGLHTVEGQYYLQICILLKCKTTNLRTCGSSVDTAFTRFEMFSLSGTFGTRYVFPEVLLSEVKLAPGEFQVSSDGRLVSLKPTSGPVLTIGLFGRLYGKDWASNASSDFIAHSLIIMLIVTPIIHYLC

[16] = Intrinsic clearance in human hepatocytes assessed per million cells by relay assay method; assay type: ADME, cell-based, Hepatocyte
[17] = biological target: T2, Pantetheinase; experiment: Inhibition of human plasma vanin-1 using pantetheine-7-amino-4-trifluoromethykournarin as substrate preincubated for 30 mins followed by substrate addition; assay type: cell-free
[18] = Intrinsic clearance in human hepatocytes assessed per million cells; assay type: ADME, cell-based, Hepatocyte

| IC50 [1] | IC50 [2] | logD [3] | Intrinsic clearance [4] | Papp A→B [5] | SMILES | other results |
| --- | --- | --- | --- | --- | --- | --- |
| 40 nM | 0.6 nM | 0.2 | < 8 µL/min/mg | 16 ×10⁻⁶ cm/s | C[C@H](Nc1ncc(C(=O)N2CC3(CCOCC3)C2)cn1)c1cnccn1 | – |
| 12700 nM | 52 nM | -0.4 | < 8 µL/min/mg | 1.7 ×10⁻⁶ cm/s | N#C[C@@H]1CCCN(C(=O)c2cnc(NC3(c4cncnc4)CC3)nc2)C1 | – |
| – | – | 2 | < 8 µL/min/mg | 7 ×10⁻⁶ cm/s | C[C@H](Nc1ncc(C(=O)N2CCC3(CCOCC3)C2)cn1)c1cncnc1 | – |
| 7400 nM | – | 0 | < 8 µL/min/mg | 9 ×10⁻⁶ cm/s | O=C(c1cnc(NCc2cnccn2)nc1)N1CC2(CCOCC2)C1 | – |
| 53000 nM | 10.4 nM | -0.3 | < 11 µL/min/mg | 1.5 ×10⁻⁶ cm/s | N#CC1CCCN(C(=O)c2cnc(NC3(c4cncnc4)CC3)nc2)C1 (racemic) | K [6]: 0.026 s⁻¹; Kd [7]: 7.2 nM; T1/2 [8]: 26 s; K [9]: 6 10^6/M/s; IC50 [10]: 45 nM |
| 62000 nM | 10.6 nM | -1 | < 8 µL/min/mg | 0.6 ×10⁻⁶ cm/s | CS(=O)(=O)[C@@H]1CCCN(C(=O)c2cnc(NC3(c4cncnc4)CC3)nc2)C1 | – |
| 11000 nM | – | 0 | 12 µL/min/mg | 3 ×10⁻⁶ cm/s | O=C(c1cnc(NCc2cncnc2)nc1)N1CCC2(CCOCC2)C1 | – |
| > 13000 nM | 203 nM | -0.8 | < 8 µL/min/mg | 0.9 ×10⁻⁶ cm/s | CS(=O)(=O)C1CCCN(C(=O)c2cnc(NC3(c4cncnc4)CC3)nc2)C1 (racemic) | K [6]: 0.0088 s⁻¹; Kd [7]: 37 nM; T1/2 [8]: 79 s; K [9]: 4.1 10^5/M/s; IC50 [10]: 122 nM |
| – | 53 nM | 2.5 | 29 µL/min/mg | 28 ×10⁻⁶ cm/s | O=C(c1ccccc1)c1cnc(NCc2cccnc2)nc1 | – |
| 1020 nM | – | 0 | < 10 µL/min/mg | 2 ×10⁻⁶ cm/s | O=C(c1cnc(NC2(c3cncnc3)CC2)nc1)N1CCC2(CCOCC2)C1 | – |
| – | – | 2 | 32 µL/min/mg | 8 ×10⁻⁶ cm/s | O=C(c1cnc(NC2(c3cncnc3)CCC2)nc1)N1CCC2(CCOCC2)C1 | – |
| – | 33 nM | 1.2 | 16 µL/min/mg | 23 ×10⁻⁶ cm/s | N#Cc1cccc(C(=O)c2cnc(NCc3cncnc3)nc2)c1 | – |
| 11300 nM | – | 0.7 | < 8 µL/min/mg | 6 ×10⁻⁶ cm/s | O=C(c1cnc(NCc2cccnc2)nc1)N1CCC2(CCOCC2)C1 | – |
| – | 1200 nM | – | – | – | N#C[C@H]1CCCN(C(=O)c2cnc(NC3(c4cncnc4)CC3)nc2)C1 | – |
| 1900 nM | 0.08 nM | 0.5 | 15 µL/min/mg | 4 ×10⁻⁶ cm/s | CC(C)(Nc1ncc(C(=O)N2CCC3(CCOCC3)C2)cn1)c1cncnc1 | – |
| – | 1100 nM | -1 | < 8 µL/min/mg | 0.6 ×10⁻⁶ cm/s | CS(=O)(=O)[C@H]1CCCN(C(=O)c2cnc(NC3(c4cncnc4)CC3)nc2)C1 | – |
| > 50000 nM | – | 0.2 | < 8 µL/min/mg | 6 ×10⁻⁶ cm/s | C[C@@H](Nc1ncc(C(=O)N2CCC3(CCOCC3)C2)cn1)c1cncnc1 | – |
| 8900 nM | 0.04 nM | 1 | 14 µL/min/mg | 12 ×10⁻⁶ cm/s | O=C(c1cnc(NC2(c3cnccn3)CCC2)nc1)N1CCC2(CCOCC2)C1 | – |
| – | – | – | – | – | O=C(O)c1cc(/N=N/c2ccc(S(=O)(=O)Nc3ccccn3)cc2)ccc1O | Activity [11]: inactive; Activity [12]: Active; Activity [13]: Active |
| 1300 nM | – | -3 | < 8 µL/min/mg | < 0.2 ×10⁻⁶ cm/s | O=C(c1cnc(NC2(c3cncnc3)COC2)nc1)N1CCC2(CCOCC2)C1 | – |
| – | – | 3 | 26 µL/min/mg | 23 ×10⁻⁶ cm/s | N#Cc1cccc(C(=O)c2cnc(NC3(c4ccccc4)CC3)nc2)c1 | – |
| – | – | -2 | < 8 µL/min/mg | 2 ×10⁻⁶ cm/s | O=C(c1cnc(NC2(c3cnccn3)COC2)nc1)N1CCC2(CCOCC2)C1 | – |
| > 50000 nM | – | 1 | < 8 µL/min/mg | 11 ×10⁻⁶ cm/s | C[C@@H](Nc1ncc(C(=O)N2CCC3(CCOCC3)C2)cn1)c1cnccn1 | – |
| – | 4.4 nM | 2 | 38 µL/min/mg | 28 ×10⁻⁶ cm/s | N#Cc1cccc(C(=O)c2cnc(NCc3cccnc3)nc2)c1 | – |
| – | – | 2.2 | 14.5 µL/min/mg | 24 ×10⁻⁶ cm/s | O=C(c1cnc(NCc2cccnc2)nc1)c1cccs1 | – |
| 3600 nM | 0.06 nM | 0.6 | 18 µL/min/mg | 17 ×10⁻⁶ cm/s | CC(C)(Nc1ncc(C(=O)N2CCC3(CCOCC3)C2)cn1)c1cnccn1 | – |
| – | 52 nM | 2.9 | 51 µL/min/mg | 17 ×10⁻⁶ cm/s | Cc1cccc(C(=O)c2cnc(NCc3cccnc3)nc2)c1 | – |
| – | 0.04 nM | 0.8 | 19 µL/min/mg | 17 ×10⁻⁶ cm/s | O=C(c1cnc(NC2(c3cnccn3)CCC2)nc1)N1CC2(CCOCC2)C1 | – |
| – | – | 3 | 48 µL/min/mg | 19 ×10⁻⁶ cm/s | N#Cc1cccc(C(=O)c2cnc(NCc3ccccc3)nc2)c1 | – |
| 1200 nM | 0.11 nM | 0.6 | < 13 µL/min/mg | 14 ×10⁻⁶ cm/s | CC(C)(Nc1ncc(C(=O)N2CC3(CCOCC3)C2)cn1)c1cnccn1 | CLint [14]: 25.8 µL/min/1e6 cells; IC50 [15]: 0.41 nM; CLint [16]: 1.66 µL/min/1e6 cells; IC50 [17]: 0.88 nM; CLint [18]: < 3.5 µL/min/1e6 cells |
